The target in one data set is GLP-1R (Homo sapiens, UniProt P43220). Put plainly: GLP-1 receptor-mediated cAMP induction, luciferase reporter gene antagonism assay. Particulars: antagonism of 0.05 nM GLP-1, HEK 293 cells. It is filed as cell-based. The arrangement: host or cells: HEK 293. As for the experimental part:
GLP-1 Receptor-Mediated cAMP Induction The ability of peptides to stimulate or block cAMP induction at the GLP-1 receptor was examined by a luciferase-based reporter gene assay. Cotransfection of HEK 293 cells with the human GLP-1 receptor (Open Biosystems) and a cAMPinducible (cAMPresponsive element) luciferase gene constituted the cellular construct where receptor activation could be measured. Bioassays were performed by first serum depriving the cells for 16 h in 0.25% bovine growth serum (HyClone)-supplemented Dulbecco's modified Eagle's medium (Invitrogen) and then adding serial dilutions of the peptides over the appropriate concentration ranges in 96-well poly-D-lysine-coated plates (BD Biosciences). For antagonism assays, a constant concentration of GLP-1 (0.05 nM) was added to the assay plate after the diluted peptides. Incubation continued for 5 h at 37° C., 5% CO2 and was followed by the addition of an equivalent volume (100 μL) of LucLite luminescence substrate reagent (Perkin-Elmer). MicroBeta 1450 liquid scintillation counting (Perkin-Elmer) quantified the luminescence signal in counts per second (cps) after shaking the plate at 600 rpm for 3 min. Data was plotted using Origin software (OriginLab) and the effective concentration 50 (EC50) or inhibitory concentration 50 (IC50) was determined by sigmoidal fitting. Potency was determined by comparative analysis of relative EC50 or IC50 values. Each experiment was repeated at least three times with each sample assayed in duplicate.
A general note: A reporter such as luciferase makes a cellular process visible.

Setting [1] is: Table 4, Aib variants of 9-40am Jant4 K40[C16], read-out: Bioactivity IC50.
Where [2] appears, read: 80 mM ammonium bicarbonate buffer, pH 7.7.
Where [3] appears, read: PBS, pH 7.7, Solubility [mg/mL] PBS pH7.7, Table 4, PBS pH7.7.
[4] abbreviates: Table 5, d-AA variants of 9-40am Jant4 K40[C16], read-out: Bioactivity KC50.
The mark [5] stands for this setting: 80 mM ammonium bicarbonate buffer, pH 7.7, Solubility [mg/mL] 80 mM/AmBicarb pH7.7, Table 5, 80 mM AmBicarb pH7.7.
Where [6] appears, read: 80 mM ammonium bicarbonate buffer, pH 7.7, Solubility [mg/mL] 80 mM AmBicarb pH7.7, Table 2, 80 mM AmBicarb pH7.7.

SMILES strings stand for the structures. pIC50: −log10 of the molar value. Values after ≈ are worked out from the molar mass of the structure shown. Where two headings read alike, the source gives them in different places. Starred links: 1 amine or outer side, 2 acyl side, 3 side chain; linkers in the order of their positions; H or OH if unused. Non-standard residues stand in square brackets, D forms with d. Residues, ends and D or L forms follow the SMILES beside them. Groups on a side chain read outwards from the residue. *: point of attachment. γGlu = O=C(O)[C@H](CCC(=O)[*:2])N[*:1]; Palmitoyl = CCCCCCCCCCCCCCCC(=O)*; AEEA = NCCOCCOCC(=O)O; Aib = CC(C)(N)C(=O)O

Among the data in patent publication US20240058422A1, “GLUCAGON-LIKE PEPTIDE-1 RECEPTOR ANTAGONISTS” (INDIANA UNIVERSITY RESEARCH AND TECHNOLOGY CORPORATION, priority 2022, published 2024) are IC50 and solubility values, retold here.

GLP-1R, sequence (P43220 24-463): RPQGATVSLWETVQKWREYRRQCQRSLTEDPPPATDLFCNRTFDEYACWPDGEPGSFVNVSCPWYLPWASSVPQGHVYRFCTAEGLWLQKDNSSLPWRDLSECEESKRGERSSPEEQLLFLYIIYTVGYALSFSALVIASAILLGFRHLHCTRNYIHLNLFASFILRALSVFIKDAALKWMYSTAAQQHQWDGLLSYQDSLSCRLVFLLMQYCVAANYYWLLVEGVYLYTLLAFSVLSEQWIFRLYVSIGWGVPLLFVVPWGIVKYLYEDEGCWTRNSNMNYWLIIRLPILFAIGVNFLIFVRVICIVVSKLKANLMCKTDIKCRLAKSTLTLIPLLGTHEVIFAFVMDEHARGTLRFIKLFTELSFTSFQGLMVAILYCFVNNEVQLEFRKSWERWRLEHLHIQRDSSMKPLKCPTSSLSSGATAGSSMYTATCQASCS

`CCCCCCCCCCCCCCCC(=O)NCCCC[C@H](NC(=O)[C@H](CO)NC(=O)[C@@H]1CCCN1C(=O)[C@@H]1CCCN1C(=O)[C@@H]1CCCN1C(=O)[C@H](C)NC(=O)CNC(=O)[C@H](CO)NC(=O)[C@H](CO)NC(=O)[C@@H]1CCCN1C(=O)CNC(=O)CNC(=O)[C@H](CCCCN)NC(=O)[C@@H](NC(=O)[C@H](CC(C)C)NC(=O)[C@H](Cc1c[nH]c2ccccc12)NC(=O)[C@H](C)NC(=O)[C@@H](NC(=O)[C@H](Cc1ccccc1)NC(=O)[C@H](CCC(=O)O)NC(=O)[C@H](CCCNC(=N)N)NC(=O)C(C)(C)NC(=O)[C@H](C)NC(=O)[C@H](CCC(N)=O)NC(=O)[C@H](CCC(=O)O)NC(=O)[C@H](CCC(=O)O)NC(=O)[C@H](CC(C)C)NC(=O)[C@H](Cc1ccc(O)cc1)NC(=O)[C@H](CO)NC(=O)[C@H](CO)NC(=O)[C@@H](NC(=O)[C@@H](N)CC(=O)O)C(C)C)[C@@H](C)CC)C(C)C)C(N)=O` [compound 45] (H-DVSSYLEEQA[Aib]REFIAWLVKGGPSSGAPPPSK(Palmitoyl)-NH2; N-terminus assumed): the pIC50 on GLP-1R (setting [1]) was 8.10. Besides, the results for the solubility in “Solubility in buffer” (setting [2]) and in “Solubility in buffer” (setting [3]) were 11.1 mg/mL (≈ 3.06 mM) and 0.4 mg/mL (≈ 0.11 mM), respectively.
`CCCCCCCCCCCCCCCC(=O)NCCCC[C@H](NC(=O)[C@H](CO)NC(=O)[C@@H]1CCCN1C(=O)[C@@H]1CCCN1C(=O)[C@@H]1CCCN1C(=O)[C@H](C)NC(=O)CNC(=O)[C@H](CO)NC(=O)[C@H](CO)NC(=O)[C@@H]1CCCN1C(=O)CNC(=O)CNC(=O)[C@H](CCCCN)NC(=O)[C@@H](NC(=O)[C@H](CC(C)C)NC(=O)[C@H](Cc1c[nH]c2ccccc12)NC(=O)[C@H](C)NC(=O)[C@@H](NC(=O)[C@H](Cc1ccccc1)NC(=O)[C@H](CCC(=O)O)NC(=O)[C@H](CCCNC(=N)N)NC(=O)[C@@H](NC(=O)C(C)(C)NC(=O)[C@H](CCC(N)=O)NC(=O)[C@H](CCC(=O)O)NC(=O)[C@H](CCC(=O)O)NC(=O)[C@H](CC(C)C)NC(=O)[C@H](Cc1ccc(O)cc1)NC(=O)[C@H](CO)NC(=O)[C@H](CO)NC(=O)[C@@H](NC(=O)[C@@H](N)CC(=O)O)C(C)C)C(C)C)[C@@H](C)CC)C(C)C)C(N)=O` [compound 46] (H-DVSSYLEEQ[Aib]VREFIAWLVKGGPSSGAPPPSK(Palmitoyl)-NH2; N-terminus assumed): the pIC50 on GLP-1R (setting [1]) is 8.15. The values for the solubility in the data set “Solubility in buffer” (setting [2]) and in “Solubility in buffer” (setting [3]) were 17.5 mg/mL (≈ 4.79 mM) and 0.7 mg/mL (≈ 0.192 mM), respectively.
For `CCCCCCCCCCCCCCCC(=O)NCCCC[C@H](NC(=O)[C@H](CO)NC(=O)[C@@H]1CCCN1C(=O)[C@@H]1CCCN1C(=O)[C@@H]1CCCN1C(=O)[C@H](C)NC(=O)CNC(=O)[C@H](CO)NC(=O)[C@H](CO)NC(=O)[C@@H]1CCCN1C(=O)CNC(=O)CNC(=O)[C@H](CCCCN)NC(=O)[C@@H](NC(=O)[C@H](CC(C)C)NC(=O)[C@H](Cc1c[nH]c2ccccc12)NC(=O)[C@H](C)NC(=O)[C@@H](NC(=O)[C@H](Cc1ccccc1)NC(=O)[C@H](CCC(=O)O)NC(=O)[C@H](CCCNC(=N)N)NC(=O)[C@@H](NC(=O)[C@H](C)NC(=O)[C@H](CCC(N)=O)NC(=O)[C@H](CCC(=O)O)NC(=O)[C@@H](CCC(=O)O)NC(=O)[C@H](CC(C)C)NC(=O)[C@H](Cc1ccc(O)cc1)NC(=O)[C@H](CO)NC(=O)[C@H](CO)NC(=O)[C@@H](NC(=O)[C@@H](N)CC(=O)O)C(C)C)C(C)C)[C@@H](C)CC)C(C)C)C(N)=O` [compound 49] (H-DVSSYL[dE]EQAVREFIAWLVKGGPSSGAPPPSK(Palmitoyl)-NH2; N-terminus assumed), the pIC50 on GLP-1R (setting [4]) is 7.64. Also, the solubility in the data set “Solubility in buffer” (setting [5]) is above 20 mg/mL.
For `CCCCCCCCCCCCCCCC(=O)NCCCC[C@H](NC(=O)[C@H](CO)NC(=O)[C@@H]1CCCN1C(=O)[C@@H]1CCCN1C(=O)[C@@H]1CCCN1C(=O)[C@H](C)NC(=O)CNC(=O)[C@H](CO)NC(=O)[C@H](CO)NC(=O)[C@@H]1CCCN1C(=O)CNC(=O)CNC(=O)[C@H](CCCCN)NC(=O)[C@@H](NC(=O)[C@H](CC(C)C)NC(=O)[C@H](Cc1c[nH]c2ccccc12)NC(=O)[C@H](C)NC(=O)[C@H](NC(=O)[C@H](Cc1ccccc1)NC(=O)[C@H](CCC(=O)O)NC(=O)[C@H](CCCNC(=N)N)NC(=O)[C@@H](NC(=O)[C@H](C)NC(=O)[C@H](CCC(N)=O)NC(=O)[C@H](CCC(=O)O)NC(=O)[C@H](CCC(=O)O)NC(=O)[C@H](CC(C)C)NC(=O)[C@H](Cc1ccc(O)cc1)NC(=O)[C@H](CO)NC(=O)[C@H](CO)NC(=O)[C@@H](NC(=O)[C@@H](N)CC(=O)O)C(C)C)C(C)C)[C@H](C)CC)C(C)C)C(N)=O` [compound 51] (H-DVSSYLEEQAVREF[dI]AWLVKGGPSSGAPPPSK(Palmitoyl)-NH2; N-terminus assumed) the same measures were 7.51 and above 20 mg/mL.
As to `CCCCCCCCCCCCCCCC(=O)N[C@@H](CCC(=O)NCCOCCOCC(=O)NCCCC[C@H](NC(=O)[C@H](CO)NC(=O)[C@@H]1CCCN1C(=O)[C@@H]1CCCN1C(=O)[C@@H]1CCCN1C(=O)[C@H](C)NC(=O)CNC(=O)[C@H](CO)NC(=O)[C@H](CO)NC(=O)[C@@H]1CCCN1C(=O)CNC(=O)CNC(=O)[C@H](CCCCN)NC(=O)[C@@H](NC(=O)[C@H](CC(C)C)NC(=O)[C@H](Cc1c[nH]c2ccccc12)NC(=O)[C@H](C)NC(=O)[C@@H](NC(=O)[C@H](Cc1ccccc1)NC(=O)[C@H](CCC(=O)O)NC(=O)[C@H](CCCNC(=N)N)NC(=O)[C@@H](NC(=O)[C@H](C)NC(=O)[C@H](CCC(N)=O)NC(=O)[C@H](CCC(=O)O)NC(=O)[C@H](CCC(=O)O)NC(=O)[C@H](CC(C)C)NC(=O)[C@H](Cc1ccc(O)cc1)NC(=O)[C@H](CO)NC(=O)[C@H](CO)NC(=O)[C@@H](NC(=O)[C@@H](N)CC(=O)O)C(C)C)C(C)C)[C@@H](C)CC)C(C)C)C(N)=O)C(=O)O` [compound 56] (H-DVSSYLEEQAVREFIAWLVKGGPSSGAPPPSK([AEEA-γGlu-Palmitoyl])-NH2; N-terminus assumed), the solubility in the data set “Solubility in buffer” (setting [6]) was above 20 mg/mL.
Still for that read-out and setting: under `CCCCCCCCCCCCCCCC(=O)N[C@@H](CCC(=O)N[C@@H](CCC(=O)NCCOCCOCC(=O)NCCOCCOCC(=O)NCCCC[C@H](NC(=O)[C@H](CO)NC(=O)[C@@H]1CCCN1C(=O)[C@@H]1CCCN1C(=O)[C@@H]1CCCN1C(=O)[C@H](C)NC(=O)CNC(=O)[C@H](CO)NC(=O)[C@H](CO)NC(=O)[C@@H]1CCCN1C(=O)CNC(=O)CNC(=O)[C@H](CCCCN)NC(=O)[C@@H](NC(=O)[C@H](CC(C)C)NC(=O)[C@H](Cc1c[nH]c2ccccc12)NC(=O)[C@H](C)NC(=O)[C@@H](NC(=O)[C@H](Cc1ccccc1)NC(=O)[C@H](CCC(=O)O)NC(=O)[C@H](CCCNC(=N)N)NC(=O)[C@@H](NC(=O)[C@H](C)NC(=O)[C@H](CCC(N)=O)NC(=O)[C@H](CCC(=O)O)NC(=O)[C@H](CCC(=O)O)NC(=O)[C@H](CC(C)C)NC(=O)[C@H](Cc1ccc(O)cc1)NC(=O)[C@H](CO)NC(=O)[C@H](CO)NC(=O)[C@@H](NC(=O)[C@@H](N)CC(=O)O)C(C)C)C(C)C)[C@@H](C)CC)C(C)C)C(N)=O)C(=O)O)C(=O)O` [compound 58] (H-DVSSYLEEQAVREFIAWLVKGGPSSGAPPPSK([AEEA-AEEA-γGlu-γGlu-Palmitoyl])-NH2; N-terminus assumed) stands above 25 mg/mL.
Consider `CCCCCCCCCCCCCCCC(=O)NCCCC[C@H](NC(=O)[C@H](CO)NC(=O)[C@@H]1CCCN1C(=O)[C@@H]1CCCN1C(=O)[C@@H]1CCCN1C(=O)[C@H](C)NC(=O)CNC(=O)[C@H](CO)NC(=O)[C@H](CO)NC(=O)[C@@H]1CCCN1C(=O)CNC(=O)CNC(=O)[C@H](CCCCN)NC(=O)[C@@H](NC(=O)[C@H](CC(C)C)NC(=O)[C@H](Cc1c[nH]c2ccccc12)NC(=O)C(C)(C)NC(=O)[C@@H](NC(=O)[C@H](Cc1ccccc1)NC(=O)[C@H](CCC(=O)O)NC(=O)[C@H](CCCNC(=N)N)NC(=O)[C@@H](NC(=O)[C@H](C)NC(=O)[C@H](CCC(N)=O)NC(=O)[C@H](CCC(=O)O)NC(=O)[C@H](CCC(=O)O)NC(=O)[C@H](CC(C)C)NC(=O)[C@H](Cc1ccc(O)cc1)NC(=O)[C@H](CO)NC(=O)[C@H](CO)NC(=O)[C@@H](NC(=O)[C@@H](N)CC(=O)O)C(C)C)C(C)C)[C@@H](C)CC)C(C)C)C(N)=O` [compound 83] (H-DVSSYLEEQAVREFI[Aib]WLVKGGPSSGAPPPSK(Palmitoyl)-NH2), for which the solubility amounted to 12.6 mg/mL (≈ 3.45 mM) in “Solubility in buffer” (setting [2]) and 0.3 mg/mL (≈ 0.0821 mM) in the data set “Solubility in buffer” (PBS, pH 7.7).

By solubility is commonly meant the concentration that dissolves in the medium under given conditions. The low end stands for little dissolved substance, the high end for much dissolved substance.
